Measured values reported in patent US20200030463A1, “USE RADIUM RA-223 […] THE TREATMENT OF MULTIPLE MYELOMA” (Bayer Aktiengesellschaft, priority 2017, published 2020).

Key:
[1] = tested on: JJN-3, L-363, LP-1, MOLP-8, RPMI-8226, OPM-2 and 5TGM1 cells; assay: Proliferation assays, all cancer cell lines tested; type: cell-based, human and mouse
Description: (§1) Proliferation assays were performed with human plasma cell leukemia (JJN-3, L-363), human multiple myeloma (LP-1, MOLP-8, RPMI-8226 and OPM-2) and mouse MM 5TGM1 cells. The corresponding in vivo effects were studied in a syngeneic 5TGM1 mouse MM model. Female C57BL/KaLwRij mice (6-9 weeks old, n=15/group) were inoculated with 5TGM1 cells via tail vein and 26 days later, radium-223 (300 kBq/kg, single iv injection) and/or bortezomib (1 mg/kg ip, twice a week) or vehicle control were administered. The development of the osteolytic lesions was detected by radiography. The hind limbs were used for histological analyses and total activity measurement performed by a gamma-counter. Osteoclast number at tumor-bone interface was measured using TRAP staining.

[2] = tested on: JJN-3 human plasma cell leukemia cells; assay: Proliferation assay, JJN-3; type: cell-based; conditions: JJN3 cells
Description: as §1

[3] = tested on: OPM-2 human multiple myeloma cells; assay: Proliferation assay, OPM-2; type: cell-based; conditions: OPM-2 cells
Description: as §1

[4] = tested on: syngeneic 5TGM1 mouse MM model; assay: Syngeneic 5TGM1 mouse MM model; type: in vivo; conditions: p<0.05 bortezomib; for osteolytic lesion area: radiography, radium-223 300 kBq/kg single iv and/or bortezomib 1 mg/kg ip twice a week, p=0.01 radium-223, p<0.001 combination
Description: as §1

[5] = tested on: L-363 human plasma cell leukemia cells; assay: Proliferation assay, L-363; type: cell-based; conditions: L-363 cells
Description: as §1, with “staining. Bortezomib inhibited proliferation of all cancer cell lines tested at 25 nM (JJN3 and OPM-2 at 2.5 nM) and radium-223 at 800 Bq/ml (L-363 and MOLP-8 at 200 Bq/ml). […] In 5TGM1 MM model, both bortezomib and radium-223 decreased osteolytic lesion area as monotherapy (p<0.05 and p=0.01, respectively). […] All treatments were well tolerated.” for “staining.”

[6] = tested on: MOLP-8 human multiple myeloma cells; assay: Proliferation assay, MOLP-8; type: cell-based; conditions: MOLP-8 cells
Description: as §1, with “staining. Bortezomib inhibited proliferation of all cancer cell lines tested at 25 nM (JJN3 and OPM-2 at 2.5 nM) and radium-223 at 800 Bq/ml (L-363 and MOLP-8 at 200 Bq/ml). […] In 5TGM1 MM model, both bortezomib and radium-223 decreased osteolytic lesion area as monotherapy (p<0.05 and p=0.01, respectively). […] All treatments were well tolerated.” for “staining.”

[7] = tested on: patients with CRPC and bone metastases; conditions: cited from earlier work
[8] = single dose 250 kBq per kg body weight; cited from earlier work
[9] = tested on: patients with bone metastases; conditions: cited from earlier work
[10] = phase 2 studies, CRPC and bone metastases

Structure (SMILES) | concentration at which proliferation was inhibited [1] | concentration at which proliferation was inhibited [2] | concentration at which proliferation was inhibited [3] | number of osteoclasts at tumor-bone interface ([4]; TRAP staining, p<0.01 combination) | osteolytic lesion area [4] | activity concentration at which proliferation was inhibited [1] | activity concentration at which proliferation was inhibited [5] | activity concentration at which proliferation was inhibited [6] | median survival longer than placebo ([7]; CRPC with bone metastases) | median overall survival ([7]; Phase III clinical trials) | reduction in risk of death compared with placebo ([7]; overall survival, CRPC with bone metastases) | time to first skeletal-related event ([7]; vs placebo) | cases of grade 3 neutropenia [8] | observed adverse reactions [8] | safety profile ([9]; phase 1 and 2 studies) | disease-related biomarkers (bone ALP, PSA) [9, 10] | pain [9, 10]
CC(C)C[C@H](NC(=O)[C@H](Cc1ccccc1)NC(=O)c1cnccn1)B(O)O [bortezomib] | 25 nM | 2.5 nM | 2.5 nM | decreased | decreased | – | – | – | – | – | – | – | – | – | – | – | –
[Cl][223Ra][Cl] [radium-223, radium-223 dichloride] | – | – | – | – | decreased | 800 Bq/ml | 200 Bq/ml | 200 Bq/ml | 2.8 months | Significant increase | 30.5% | significantly prolonged | 1/5 | diarrhea and reversible myelosuppression | favorable safety profile with minimal myelotoxicity | improves | reduces pain
